{"source": "paper PMC8704911", "about": "“Novel Combinatorial Strategy Using Thermal Inkjet Bioprinting, Chemotherapy, and Radiation on Human Breast Cancer Cells; an In-Vitro Cell Viability Assessment” (Materials, 2021)", "key": {"MDA-MB-231 cells": {"system": "MDA-MB-231 cells", "details": "H2O2 exposure, RT = 20 Gy (table head; Table 6 title says 10 Gray in 3 fractions)"}, "MCF7 cells": {"system": "MCF7 cells", "details": "H2O2 exposure", "protocol": "PD 0332991 HCL (Palbociclib) and letrozole (Let; Formula: C17H11N5) were obtained from Fisher Scientific (Waltham, MA, USA). Palbociclib was dissolved in dimethyl sulfoxide (DMSO) to obtain a stock solution of 1 mM. Letrozole was dissolved in DMSO as a 100 mM stock solution. Drugs were serially diluted to determine the cytotoxic concentration 50% (CC50) of the TIB and manually seeded cell samples required to kill 50% of the cell population. Additionally, the CC50 values were determined by using the cytotoxicity values obtained experimentally and the linear interpolator webpage (https://www.johndcook.com/interpolator.html (accessed on 16 December 2021)) as previously described. […] TIB and MS MCF7 cells were incubated for 24 h prior to drug exposure. The same procedure explained in Section 2.5 was followed to determine cell viability.\nApproximately, 1.2 × 10^6 cells/mL were resuspended in 1x PBS and used as the bioink cell solution. Modified inkjet cartridges were sonicated in deionized water for 15 min and tested in a previously modified thermal inkjet printer (HP Deskjet 340 Printer, HP, Palo Alto, CA, USA) inside of a biological safety cabinet. Next, 100 µL of cell solution was added to a modified sterile inkjet printer cartridge. The cell solution was bioprinted over one-half of the 96-well plate containing 200 µL of pre-incubated media. Manually seeded cells (MS) were added to the other half of the 96-well plate. Both TIB and MS cells were incubated immediately after with two media changes first at three days post bioprinting and then prior to the drug treatments.\nThermal inkjet bioprinted and manually seeded MCF7 cells were incubated for 5 days post bioprinting with two media changes to allow cells to settle and grow in their new environment. On the 5th day, each well-containing cell was adjusted to 10, 50, 100, and 150 µM PD and 10 µM Let. Letrozole remained constant for all treatments at 10 µM and is referred to as ##.# µM PD-Let. After 12 h post inoculation then at 24-h intervals for five consecutive days, all PD-Let-treated and non-treated cells were exposed to fractionated irradiation (RT) of 2, 4 (twice), and 5 (twice) Gray (Gy) for a cumulative dose of 10 and 20 Gy. Cell media was replenished after cumulative irradiation exposure of 10 Gy.\nCytotoxicity was assessed using an automated live-cell differential nuclear staining (DNS) imaging assay. […] Cytotoxicity was evaluated 12 h post irradiation by using the live-cell differential nuclear staining […] assay utilizing Hoechst 33342 and propidium iodide (PI) stains as previously described. […] Images of cells from individual wells used to quantify their viability profiles were independently captured by using the IN Cell Analyzer 2000 multi-well plate reader bioimager system (GE Healthcare, Systems, Chicago, IL, USA). […]"}, "MCF-10A cells": {"system": "MCF-10A cells", "details": "H2O2 exposure"}}, "note": "Where two headings read alike, the source gives them in different places."}
{"smiles": "OO", "note": "[H2O2]", "values": [{"measurement": "Mean % of Live Cells MS", "setting": "MDA-MB-231 cells", "result": 0.4, "unit": "%"}, {"measurement": "Mean % of Live Cells TIB", "setting": "MDA-MB-231 cells", "result": 0.0, "unit": "%"}, {"measurement": "Mean % of Live Cells MS", "setting": "MCF7 cells; RT = 10 gray in 3 fractions", "result": 15.4, "unit": "%"}, {"measurement": "Mean % of Live Cells TIB", "setting": "MCF7 cells; RT = 10 gray in 3 fractions", "result": 12.1, "unit": "%"}, {"measurement": "Mean % of Live Cells MS", "setting": "MCF7 cells; RT = 20 gray in 5 fractions", "result": 0.3, "unit": "%"}, {"measurement": "Mean % of Live Cells TIB", "setting": "MCF7 cells; RT = 20 gray in 5 fractions", "result": 0.0, "unit": "%"}, {"measurement": "Mean % of Live Cells MS", "setting": "MCF-10A cells; RT = 0", "result": 0.00, "unit": "%"}, {"measurement": "Mean % of Live Cells TIB", "setting": "MCF-10A cells; RT = 0", "result": 0.0, "unit": "%"}, {"measurement": "Mean % of Live Cells TIB", "setting": "MCF-10A cells; RT = 10 gray in 3 fractions, first column", "result": 2.9, "unit": "%"}, {"measurement": "Mean % of Live Cells TIB", "setting": "MCF-10A cells; RT = 10 gray in 3 fractions, second column so headed", "result": 2.8, "unit": "%"}, {"measurement": "Mean % of Live Cells MS", "setting": "MCF-10A cells; RT = 20 Gray in 5 fractions", "result": 1.9, "unit": "%"}, {"measurement": "Mean % of Live Cells TIB", "setting": "MCF-10A cells; RT = 20 Gray in 5 fractions", "result": 0.0, "unit": "%"}]}
